In the Kinase Knowledgebase extract (Sharma et al. 2016) one finds IC50 data, which are given here for 27 compounds.

Several values for one entry are separate records, joined by “and”; a condition that tells them apart may be missing. Identical values can stand only once.

This assay deals with MAPK14 (UniProt Q16539). As to the kind of experiment: Inhibition of MAPK14 Kinase Activity.
Chain of MAPK14 (Q16539 whole entry, looked up): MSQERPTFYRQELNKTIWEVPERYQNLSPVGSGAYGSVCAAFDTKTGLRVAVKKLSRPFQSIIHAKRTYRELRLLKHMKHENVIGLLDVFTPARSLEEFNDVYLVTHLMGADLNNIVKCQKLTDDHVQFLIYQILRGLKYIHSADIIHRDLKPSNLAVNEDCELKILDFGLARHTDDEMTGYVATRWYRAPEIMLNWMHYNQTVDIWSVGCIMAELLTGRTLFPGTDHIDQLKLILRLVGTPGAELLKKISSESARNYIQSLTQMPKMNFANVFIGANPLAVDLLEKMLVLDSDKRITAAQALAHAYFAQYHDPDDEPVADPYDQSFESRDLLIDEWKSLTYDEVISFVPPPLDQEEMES
For the compound `N#Cc1ccc(-c2nc(-c3ccccc3)[nH]c2-c2ccncc2)cc1`, the IC50 came to 977 nM. In the case of `Clc1ccccc1-c1nc(-c2ccccc2)[nH]c1-c1ccncc1` it was 151 nM. For `Nc1nccc(-c2[nH]c(C3CCNCC3)nc2-c2cccc(C(F)(F)F)c2)n1`, the IC50 was determined as 7 nM. As for `FC(F)(F)c1cccc(-c2nc(-c3ccccc3)[nH]c2-c2ccncc2)c1`, the IC50 is 85 nM. Take `Fc1ccc(-c2nc(C3CCCCC3)[nH]c2-c2ccncc2)cc1`: the IC50 worked out at 70 nM. With `CNc1nccc(-c2[nH]c(-c3ccccc3)nc2-c2ccccc2)n1` the figure was 120 nM; with `Clc1cc(Cl)cc(-c2nc(-c3ccccc3)[nH]c2-c2ccncc2)c1`, 138 nM; with `Clc1ccc(-c2nc(-c3ccccc3)[nH]c2-c2ccncc2)cc1`, 47 nM. `Clc1ccc(-c2nc(-c3ccccc3)[nH]c2-c2ccncc2)cc1Cl` displayed a 50% inhibitory concentration (IC50) of 28 nM. As for `Nc1nccc(-c2[nH]c(-c3ccccc3)nc2-c2ccccc2)n1`, the IC50 was found to be 38 nM.

Regarding `C[C@H](Nc1nccc(-c2[nH]c(C3CCNCC3)nc2-c2cccc(C(F)(F)F)c2)n1)c1ccccc1`, the IC50 was 0.7 nM and 0.1 nM. In the case of `COc1cccc(-c2nc(-c3ccccc3)[nH]c2-c2ccncc2)c1` it was 549 nM. With `c1ccc(-c2ccc(-c3nc(-c4ccccc4)[nH]c3-c3ccncc3)cc2)cc1` the figure was 1000 nM.

Compound `Fc1ccc(-c2nc[nH]c2-c2ccncc2)cc1` gave an IC50 of 169 nM. In the case of `c1ccc(-c2nc(-c3ccccc3)c(-c3ccncc3)[nH]2)cc1` it was 181 nM; in that of `Clc1cccc(-c2nc(-c3ccccc3)[nH]c2-c2ccncc2)c1`, 128 nM; in that of `COc1ccc(CNc2nccc(-c3[nH]c(C4CCNCC4)nc3-c3cccc(C(F)(F)F)c3)n2)cc1`, 7 nM. In the case of `CC(C)c1nc(-c2ccccc2)[nH]c1-c1ccncc1` it was 2090 nM; in that of `Fc1ccc(-c2nc(C3CCNCC3)[nH]c2-c2ccncc2)cc1`, 8 nM; in that of `FC(F)(F)c1ccc(-c2nc(-c3ccccc3)[nH]c2-c2ccncc2)cc1`, 199 nM. In the case of `Fc1cccc(-c2nc(-c3ccccc3)[nH]c2-c2ccncc2)c1` it was 489 nM; in that of `COc1ccc(-c2nc(-c3ccccc3)[nH]c2-c2ccncc2)cc1`, 301 nM. `Oc1ccc(-c2nc(-c3ccccc3)[nH]c2-c2ccncc2)cc1`: the IC50 is 1410 nM.

The compound `COc1ccc(CNc2nccc(-c3[nH]c(-c4ccccc4)nc3-c3ccccc3)n2)cc1` displayed an IC50 of 38 nM. In the case of `c1ccc(-c2nc(-c3ccccc3)c(-c3ccncn3)[nH]2)cc1` it was 707 nM; in that of `Oc1cccc(-c2nc(-c3ccccc3)[nH]c2-c2ccncc2)c1`, 141 nM. With `C[C@@H](Nc1nccc(-c2[nH]c(C3CCNCC3)nc2-c2cccc(C(F)(F)F)c2)n1)c1ccccc1` the figure was 0.9 nM.
